Results reported in patent US8759400B2, “Histone deacetylase inhibitors for enhancing activity of antifungal agents” (MethylGene Inc., priority 2005, dated 2014).
Converted amounts (≈) assume the structure as drawn. “And” between values parts separate entries of the source, which are not always exact repeats. Equal values may be shown once. Marks after values point to notes of the source that are not given here.

How the values were obtained:
Pseudallescheria boydii = assay: Clinical isolates of other fungal species, checkerboard; format: cell-based
Aspergillus terreus = assay: as above; format: cell-based
C. krusei (14243) = assay: MIC and checkerboard synergy with azoles; format: cell-based, Candida krusei
Procedure: (§1) For susceptibility studies, overnight cultures of both Candida species are diluted 1:100 in YEPD medium, grown for 4 h at 30° C., counted in a hemocytometer, then diluted to a concentration of 5×10^3 cells/ml. […] Synergy, determined by the checkerboard method, is defined as a decrease in MIC of antifungal agent that is more than additive of the MIC of the histone deacetylase inhibitor and the antifungal agent alone.

A. fumigatus = assay: Clinical isolates, CLSI M38-A broth microdilution and checkerboard; format: cell-based
C. krusei = assay: Clinical isolates, CLSI M27-A2 broth microdilution and checkerboard; format: cell-based; settings: for minimum Compound 4 concentration at which Compound 4 alone inhibited growth (number in brackets): C. krusei clinical isolates
HDAC [1] = assay: HDAC inhibitory activity in fungal protoplasts (Fluor-de-Lys); format: cell-based, Candida glabrata; settings: C. glabrata protoplasts
Procedure: (§2) Protoplasts of C. albicans and C. glabrata are prepared by the […] method of Franzusoff et al.

Candida spp. = assay: Clinical isolates, checkerboard, summary over 45 isolates; format: cell-based; settings: for isolates with synergy / isolates tested: 45 clinical isolates of Candida spp.
C. tropicalis = assay: Clinical isolates, CLSI M27-A2 broth microdilution and checkerboard; format: cell-based
Rhizopus arrhizus = assay: Clinical isolates of other fungal species, checkerboard; format: cell-based
Paecilomyces lilacinus = assay: as above; format: cell-based
C. albicans [2] = assay: Immunocompromised mouse model of systemic candidiasis; format: in vivo; settings: compound 4 at 2-10 mg/kg i.p. daily with ketoconazole 20 mg/kg i.p. daily, 7 days; immunocompromised mice; FIG. 4
Procedure: The standard method for the mouse candidiasis studies is as follows. Female CD-1 mice are immunocompromised by injecting 240 mg/kg cyclophosphamide on day -3 then 80 mg/kg cyclophosphamide on days 1 and 5. C. albicans is grown in Sabouraud agar, cells are resuspended in 0.9% saline and counted in a hemacytometer. […] Mice are treated with ketoconazole +/− test compound daily for seven days, starting one day after the infection. They are monitored daily for weight loss and death. Mice are sacrificed on day 8 and the kidneys are removed and homogenized and fungal load (CFU) per pair of kidneys determined.

Aspergillus spp. = assay: Clinical isolates, checkerboard, summary over 16 isolates; format: cell-based
Mucor Sp. = assay: Clinical isolates of other fungal species, checkerboard; format: cell-based
Aspergillus fumigatus = assay: as above; format: cell-based
HMEC = assay: Mammalian cytotoxicity, MTT reduction
C. glabrata = assay: Clinical isolates, CLSI M27-A2 broth microdilution and checkerboard; format: cell-based
C. albicans [3] = assay: as above; format: cell-based; settings: Cpd 4 with voriconazole
Histoplasma = assay: microbe, parasite or virus in culture; format: cell-based
C. parapsilosis (22019) = assay: MIC and checkerboard synergy with azoles; format: cell-based, Candida parapsilosis
Procedure: as §1

A. fumigatus ATCC 1022 = assay: MIC80 and checkerboard synergy, broth microdilution (NCCLS M38-A); format: cell-based, Aspergillus fumigatus
HDAC [4] = assay: HDAC inhibitory activity in fungal protoplasts (Fluor-de-Lys); format: cell-based, Candida albicans; settings: C. albicans protoplasts
Procedure: as §2

Coccidioides immitis = assay: microbe, parasite or virus in culture; format: cell-based
Fusarium sp. = assay: Clinical isolates of other fungal species, checkerboard; format: cell-based
Procedure: To determine the synergy between Compound 4 and azoles against other fungal species, a series of clinical isolates (Micheal Rinaldi, University of Texas Health Science Center) was tested by the checkerboard method as described in Example 1.

C. parapsilosis = assay: Fungicidal activity (CFU counts); format: cell-based; settings: voriconazole with Compound 4, data not shown
C. albicans (ATCC 90028) = assay: MIC80 and checkerboard synergy with antifungal agents; format: cell-based, Candida albicans; settings: for Conc. Cpd 4 for 4-fold decrease: C. albicans; for Cpd 4 Conc for 4-fold synergy: C. albicans (90028)
[5] = Rhizopus arrhizus, *Synergy occurs at ½ MIC of Cpd 4
[6] = Paecilomyces lilacinus, *Synergy occurs at ½ MIC of Cpd 4
[7] = Aspergillus spp. clinical isolates

With `O=C(Cc1ccc(CCCCc2ccccc2)cc1)NO` [Cpd 4] the “Synergy with Cpd 4 (strains showing synergy/total strains tested) Itraconazole” value (Pseudallescheria boydii; Pseudallescheria boydii) was 0/3, the “Synergy with Cpd 4 (strains showing synergy/total strains tested) Voriconazole” value (Pseudallescheria boydii; Pseudallescheria boydii) was 0/3 and the MIC (Pseudallescheria boydii; Scedosporium boydii, Pseudallescheria boydii clinical isolates, read-out: Cpd 4 MIC) was 2 µg/mL. The “Synergy with Cpd 4 (strains showing synergy/total strains tested) Itraconazole” value (Aspergillus terreus; Aspergillus terreus) was 3/3, the “Synergy with Cpd 4 (strains showing synergy/total strains tested) Voriconazole” value (Aspergillus terreus; Aspergillus terreus) was 3/3 and the MIC (Aspergillus terreus; Aspergillus terreus clinical isolates, read-out: Cpd 4 MIC) was greater than 8 µg/mL. The MIC (C. krusei (14243); Pichia kudriavzevii, read-out: Cpd 4 MIC) was 3.1 to 6.3 µg/mL, the “Cpd 4 Conc for 4-fold synergy” value (C. krusei (14243); with itraconazole) was 0.39 µg/mL and the “Cpd 4 Conc for 4-fold synergy” value (C. krusei (14243); with ketoconazole) was 0.39 µg/mL. For the same compound, the “Cpd 4 Conc for 4-fold synergy” value (C. krusei (14243); with voriconazole) was 0.39 µg/mL, the “ITR/Cpd 4 FIC interpretation” value (A. fumigatus; Cpd 4 with itraconazole) was “(S) (S = synergy)” and the “VOR/Cpd 4 FIC interpretation” value (A. fumigatus; Cpd 4 with voriconazole) was “(S) (S = synergy)”. For the same compound, the “minimum Compound 4 concentration at which Compound 4 alone inhibited growth (number in brackets)” value (A. fumigatus; ITR checkerboard) was 4.0 µg/mL, the “FLU/Cpd 4 FIC interpretation” value (C. krusei; Cpd 4 with fluconazole, C. krusei clinical isolates and QC 6258) was “(S) (S = synergy)” and the “VOR/Cpd 4 FIC” value (C. krusei; Cpd 4 with voriconazole, C. krusei clinical isolates and QC 6258) was 0.6 and 0.5 and 0.3. The “minimum Compound 4 concentration at which Compound 4 alone inhibited growth (number in brackets)” value (C. krusei; FLU checkerboard) was 0.5 µg/mL, the “minimum Compound 4 concentration at which Compound 4 alone inhibited growth (number in brackets)” value (C. krusei; VOR checkerboard) was 0.25 µg/mL and 0.5 µg/mL and the “HDAC inhibition IC50” value (HDAC [1]) was >20 (20%) μg/ml. The “HDAC inhibition, per cent in parentheses beside IC50 >20” value (HDAC [1]; concentration not given) was >20 (20%), the “in vitro antagonism of Compound 4-azole combination” value (Candida spp.; Candida spp. clinical isolates) was “none of the isolates tested” and the “isolates with synergy / isolates tested” value (Candida spp.; Compound 4 with FLU) was 34/45. The “isolates with synergy / isolates tested” value (Candida spp.; Compound 4 with VOR) was 37/45, the “Conc. Cpd 4 for 4-fold decrease” value (C. tropicalis; 4-fold reduction of FLU MIC) was 0.5 µg/mL and the “VOR/Cpd 4 FIC interpretation” value (C. tropicalis; Cpd 4 with voriconazole) was “(S) (S = synergy)”. For the same compound, the MIC (Rhizopus arrhizus; Rhizopus arrhizus clinical isolates, read-out: Cpd 4 MIC) was greater than 8 µg/mL, the “Synergy with Cpd 4 (strains showing synergy/total strains tested) Itraconazole” value (Rhizopus arrhizus; [5]) was 2/3* and the “Synergy with Cpd 4 (strains showing synergy/total strains tested) Voriconazole” value (Rhizopus arrhizus; [5]) was 2/3*. The “Synergy with Cpd 4 (strains showing synergy/total strains tested) Itraconazole” value (Paecilomyces lilacinus; [6]) was 2/3*, the “Synergy with Cpd 4 (strains showing synergy/total strains tested) Voriconazole” value (Paecilomyces lilacinus; [6]) was 2/3* and the MIC (Paecilomyces lilacinus; Purpureocillium lilacinum, Paecilomyces lilacinus clinical isolates, read-out: Cpd 4 MIC) was 4 µg/mL. The “effect on the activity of ketoconazole (fungal load, CFU per pair of kidneys)” value (C. albicans [2]) was “enhancing (i.e., synergistic) effect”, the “Compound 4 concentrations required for 4-fold reductions in azole MIC” value (Aspergillus spp.; [7]) was 1 to 8 µg/mL and the “in vitro antagonism of Compound 4-azole combination” value (Aspergillus spp.; [7]) was “none of the isolates tested”. For the same compound, the “number of isolates with additivity” value (Aspergillus spp.; Compound 4 with VOR and ITR, of 16 Aspergillus spp. isolates) was 4, the “number of isolates with synergy” value (Aspergillus spp.; Compound 4 with both VOR and ITR, of 16 Aspergillus spp. isolates) was 11 and the “Synergy with Cpd 4 (strains showing synergy/total strains tested) Itraconazole” value (Mucor Sp.; Mucor Sp.) was 1/3. The “Synergy with Cpd 4 (strains showing synergy/total strains tested) Voriconazole” value (Mucor Sp.; Mucor Sp.) was 0/3, the MIC (Mucor Sp.; Mucor Sp. clinical isolates, read-out: Cpd 4 MIC) was 8 µg/mL and the MIC (Aspergillus fumigatus; Aspergillus fumigatus clinical isolates, read-out: Cpd 4 MIC) was 4 to 8 µg/mL. The “Synergy with Cpd 4 (strains showing synergy/total strains tested) Itraconazole” value (Aspergillus fumigatus; Aspergillus fumigatus, *Synergy occurs at ½ MIC of Cpd 4) was 2/3*, the “Synergy with Cpd 4 (strains showing synergy/total strains tested) Voriconazole” value (Aspergillus fumigatus; Aspergillus fumigatus, †2-fold synergy obtained) was 2/3^† and the “MTT HMEC” value (HMEC) was 13 µM. The “Conc. Cpd 4 for 4-fold decrease” value (C. glabrata; 4-fold reduction of FLU MIC, C. glabrata clinical isolates) was 0.5 µg/mL, the “Conc. Cpd 4 for 4-fold decrease” value (C. glabrata; 4-fold reduction of VOR MIC, C. glabrata clinical isolates) was 0.5 µg/mL and the “FLU/Cpd 4 FIC” value (C. glabrata; Cpd 4 with fluconazole, C. glabrata clinical isolates) was 0.5. For the same compound, the “VOR/Cpd 4 FIC interpretation” value (C. glabrata; Cpd 4 with voriconazole, C. glabrata clinical isolates) was “(S) (S = synergy)”, the “minimum Compound 4 concentration at which Compound 4 alone inhibited growth (number in brackets)” value (C. glabrata; FLU checkerboard, C. glabrata clinical isolates) was 0.5 µg/mL and the “minimum Compound 4 concentration at which Compound 4 alone inhibited growth (number in brackets)” value (C. glabrata; VOR checkerboard, C. glabrata clinical isolates) was 0.5 µg/mL. For the same compound, the “Compound 4 concentration for 4-fold reduction in azole MIC” value (C. glabrata; all 14 C. glabrata clinical isolates (9 FLU-R)) was less than 0.5 µg/mL, the “VOR/Cpd 4 FIC interpretation” value (C. albicans [3]) was “(S) (S = synergy)” and the “Synergy with Cpd 4 (strains showing synergy/total strains tested) Itraconazole” value (Histoplasma) was 0/3. For the same compound, the “Synergy with Cpd 4 (strains showing synergy/total strains tested) Voriconazole” value (Histoplasma) was 0/3, the MIC (Histoplasma; read-out: Cpd 4 MIC) was 1 to 2 µg/mL (≈ 3.53 to 7.06 µM) and the MIC (C. parapsilosis (22019); Lodderomyces parapsilosis, read-out: Cpd 4 MIC) was 0.39 to 0.78 µg/mL. The “Cpd 4 Conc for 4-fold synergy” value (C. parapsilosis (22019); with ketoconazole) was 0.2 µg/mL, the “Cpd 4 Conc for 4-fold synergy” value (C. parapsilosis (22019); with voriconazole) was 0.049 µg/mL and the MIC (A. fumigatus ATCC 1022; Aspergillus fumigatus, ATCC1022, A. fumigatus (1022), read-out: Cpd 4 MIC) was 2 to 5 µg/mL. The “Cpd 4 Conc for 4-fold synergy” value (A. fumigatus ATCC 1022; with itraconazole, A. fumigatus (1022)) was 5 µg/mL, the “Cpd 4 Conc for 4-fold synergy” value (A. fumigatus ATCC 1022; with ketoconazole, A. fumigatus (1022)) was 2.5 µg/mL and the “conc. for 4-fold synergy” value (A. fumigatus ATCC 1022; with ketoconazole, A. fumigatus ATCC 1022, 48 hours) was 0.5 µg/mL. For the same compound, the “Cpd 4 Conc for 4-fold synergy” value (A. fumigatus ATCC 1022; with voriconazole, A. fumigatus (1022)) was 5 µg/mL, the “HDAC inhibition IC50” value (HDAC [4]) was greater than 20 µg/mL and the “Synergy with Cpd 4 (strains showing synergy/total strains tested) Voriconazole” value (Coccidioides immitis) was 0/3**. The “Synergy with Cpd 4 (strains showing synergy/total strains tested) Itraconazole” value (Coccidioides immitis; Coccidioides immitis) was 2/3, the MIC (Coccidioides immitis; Coccidioides immitis, read-out: Cpd 4 MIC) was 0.25 µg/mL (≈ 0.882 µM) and the “Synergy with Cpd 4 (strains showing synergy/total strains tested) Itraconazole” value (Fusarium sp.; Fusarium sp.) was 1/3. For the same compound, the MIC (Fusarium sp.; Fusarium sp. clinical isolates, read-out: Cpd 4 MIC) was 8 µg/mL, the “Synergy with Cpd 4 (strains showing synergy/total strains tested) Voriconazole” value (Fusarium sp.; Fusarium sp., *Synergy occurs at ½ MIC of Cpd 4) was 3/3* and the “increase in voriconazole fungicidal activity” value (C. parapsilosis) was 1.1-1.2 fold. The “Conc. Cpd 4 for 4-fold decrease” value (C. albicans (ATCC 90028); 4-fold decrease of nikkomycin MIC) was 1.563 µg/mL, the “Conc. Cpd 4 for 4-fold decrease” value (C. albicans (ATCC 90028); 4-fold decrease of terbinafine MIC) was 0.78 µg/mL and the MIC (C. albicans (ATCC 90028); Candida albicans, ATCC90028, compound alone, C. albicans (ATCC 90028), read-out: MIC80) was 0.8 µg/mL. For the same compound, the “Cpd 4 Conc for 4-fold synergy” value (C. albicans (ATCC 90028); with itraconazole) was 0.024 µg/mL and the “Cpd 4 Conc for 4-fold synergy” value (C. albicans (ATCC 90028); with voriconazole) was 0.39 µg/mL.
